Results on 25 compounds are retold here after US20240335420A1, “N-ACYLHYDRAZONE COMPOUNDS CAPABLE OF INHIBITING NAV 1.7 AND/OR NAV 1.8, PROCESSES FOR THE PREPARATION THEREOF, COMPOSITIONS, USES, METHODS FOR TREATMENT USING SAME AND KITS” (EUROFARMA LABORATÓRIOS S.A., priority 2021, published 2024).

The target of experiment [1] is human sodium channels Nav 1.7 (Homo sapiens (Human), UniProt Q15858). As to the kind of experiment: Automated whole-cell voltage-clamp (ScreenPatch 384P), Nav 1.7 sodium current, Protocol 1. The format is cell-based. The conditions noted are these: CHO cells expressing human Nav 1.7; for IC50: Protocol 1 (holding −90 mV, 0.1 Hz), room temperature, read-out: Nav1.7 IC50; for inhibition at 10 µM: Protocol 1, read-out: Nav1.7 percent of inhibition (IC50 value not available). On the procedure: (§1) Biological assays were performed on Chinese hamster ovary (CHO) cells expressing the human sodium channels Nav 1.8 and Nav 1.7 stably.
(§2) The experimental voltage-clamp protocol using the whole cell configuration was established on the automated ScreenPatch® 384P platform (SP384PE, Nanion Technologies, Livingston, NJ) and recording of the results was performed with a Nanion 384-well Patch Clamp chip (NPC) (Nanion Technologies, Livingston, NJ).
(§3) Compounds of Formula (I), were diluted in eight concentrations in the extracellular solution composed of physiological saline, buffered with HEPES (mM): NaCl, 137; KCl, 4; CaCl2, 3.8; MgCl2, 1; HEPES, 10; Glucose, 10; pH 7.4. The […], 50; CsF, 90; MgCl2, 5; EGTA, 5; HEPES, 10; pH 7.2. The duration of exposure of each compound with the cells expressing Nav 1.7 or Nav 1.8 was at least five minutes and the assays were performed at room temperature.
(§4) The measurements of the sodium currents of Nav 1.8 and Nav 1.7 were obtained using the voltage protocols described below: • Protocol 1: A holding voltage of −90 mV was established followed by a voltage phase of 200 ms to −120 mV, followed by a voltage step of 10 mV for 1 second for Nav 1.8 or 0 mV for Nav 1.7, followed by a step of −100 mV for 20 ms, followed by a step of 20 ms for 10 mV for Nav 1.8 or 0 mV for Nav 1.7 (TP1A) before returning to the holding voltage of −90 mV. • Protocol 2: A holding voltage of −100 mV was established followed by an inactivation voltage step at −40 mV for 8 seconds, followed by a −100 mV step for […], followed by a 20 ms step for 10 mV for Nav 1.8 or 0 mV for Nav 1.7 (TP1A) before returning to the holding voltage of −100 mV.
(§5) Protocols were repeated at a frequency of 0.1 Hz (Protocol 1) or 0.05 Hz (Protocol 2) and current amplitude was quantified over the TP1A phase log. The variation in the peak amplitude of the current was evaluated according to the Formula described below, after exposure of the cells expressing the channels, at each concentration of the different compounds:
(§6) [formula] • where |TP1A, basal, and |TP1A, molecule represent the entry peaks of sodium currents into TP1A prior to exposure to the compound and in the presence of the compound, respectively.
(§7) The decrease in peak current amplitude, after exposure of the cells to the compounds, was used to calculate the percent relative blocking of the channels relative to the positive control according to the Formula below:
(§8) [formula] • where % V and % CP represent the averages of the values of current inhibition with a vehicle (DMSO) and positive controls, respectively. The sodium currents of the positive control were considered as 100%.
(§9) [formula] • where [Test] represents the concentration of the evaluated molecule, IC50 is the concentration of the compound that generates half of the maximum inhibition, N is the Hill's coefficient and % Block′ is the percentage of the sodium channel current (Nav 1.8 and Nav 1.7) inhibited at each concentration of the evaluated molecule. Data were obtained by non-linear least squares regression with XLfit for Excel (Microsoft, Redmond, WA).
(§10) Compounds were tested in at least one assay to obtain the IC50 value.

Experiment [2] has as its target human sodium channels Nav 1.8 (Homo sapiens (Human), UniProt Q9Y5Y9). Nature of the experiment: Automated whole-cell voltage-clamp (ScreenPatch 384P), Nav 1.8 sodium current, Protocol 1. Type of experiment: cell-based. The conditions noted are these: CHO cells expressing human Nav 1.8; for IC50: Protocol 1 (holding −90 mV, 0.1 Hz), room temperature, read-out: Nav1.8 IC50; for inhibition at 10 µM: Protocol 1, read-out: Nav1.8 percent of inhibition (IC50 value not available). How it is done: as §1, §2, §3, §4, §5, §6, §7, §8, §9, §10

human sodium channels Nav 1.8, sequence (Q9Y5Y9 whole entry): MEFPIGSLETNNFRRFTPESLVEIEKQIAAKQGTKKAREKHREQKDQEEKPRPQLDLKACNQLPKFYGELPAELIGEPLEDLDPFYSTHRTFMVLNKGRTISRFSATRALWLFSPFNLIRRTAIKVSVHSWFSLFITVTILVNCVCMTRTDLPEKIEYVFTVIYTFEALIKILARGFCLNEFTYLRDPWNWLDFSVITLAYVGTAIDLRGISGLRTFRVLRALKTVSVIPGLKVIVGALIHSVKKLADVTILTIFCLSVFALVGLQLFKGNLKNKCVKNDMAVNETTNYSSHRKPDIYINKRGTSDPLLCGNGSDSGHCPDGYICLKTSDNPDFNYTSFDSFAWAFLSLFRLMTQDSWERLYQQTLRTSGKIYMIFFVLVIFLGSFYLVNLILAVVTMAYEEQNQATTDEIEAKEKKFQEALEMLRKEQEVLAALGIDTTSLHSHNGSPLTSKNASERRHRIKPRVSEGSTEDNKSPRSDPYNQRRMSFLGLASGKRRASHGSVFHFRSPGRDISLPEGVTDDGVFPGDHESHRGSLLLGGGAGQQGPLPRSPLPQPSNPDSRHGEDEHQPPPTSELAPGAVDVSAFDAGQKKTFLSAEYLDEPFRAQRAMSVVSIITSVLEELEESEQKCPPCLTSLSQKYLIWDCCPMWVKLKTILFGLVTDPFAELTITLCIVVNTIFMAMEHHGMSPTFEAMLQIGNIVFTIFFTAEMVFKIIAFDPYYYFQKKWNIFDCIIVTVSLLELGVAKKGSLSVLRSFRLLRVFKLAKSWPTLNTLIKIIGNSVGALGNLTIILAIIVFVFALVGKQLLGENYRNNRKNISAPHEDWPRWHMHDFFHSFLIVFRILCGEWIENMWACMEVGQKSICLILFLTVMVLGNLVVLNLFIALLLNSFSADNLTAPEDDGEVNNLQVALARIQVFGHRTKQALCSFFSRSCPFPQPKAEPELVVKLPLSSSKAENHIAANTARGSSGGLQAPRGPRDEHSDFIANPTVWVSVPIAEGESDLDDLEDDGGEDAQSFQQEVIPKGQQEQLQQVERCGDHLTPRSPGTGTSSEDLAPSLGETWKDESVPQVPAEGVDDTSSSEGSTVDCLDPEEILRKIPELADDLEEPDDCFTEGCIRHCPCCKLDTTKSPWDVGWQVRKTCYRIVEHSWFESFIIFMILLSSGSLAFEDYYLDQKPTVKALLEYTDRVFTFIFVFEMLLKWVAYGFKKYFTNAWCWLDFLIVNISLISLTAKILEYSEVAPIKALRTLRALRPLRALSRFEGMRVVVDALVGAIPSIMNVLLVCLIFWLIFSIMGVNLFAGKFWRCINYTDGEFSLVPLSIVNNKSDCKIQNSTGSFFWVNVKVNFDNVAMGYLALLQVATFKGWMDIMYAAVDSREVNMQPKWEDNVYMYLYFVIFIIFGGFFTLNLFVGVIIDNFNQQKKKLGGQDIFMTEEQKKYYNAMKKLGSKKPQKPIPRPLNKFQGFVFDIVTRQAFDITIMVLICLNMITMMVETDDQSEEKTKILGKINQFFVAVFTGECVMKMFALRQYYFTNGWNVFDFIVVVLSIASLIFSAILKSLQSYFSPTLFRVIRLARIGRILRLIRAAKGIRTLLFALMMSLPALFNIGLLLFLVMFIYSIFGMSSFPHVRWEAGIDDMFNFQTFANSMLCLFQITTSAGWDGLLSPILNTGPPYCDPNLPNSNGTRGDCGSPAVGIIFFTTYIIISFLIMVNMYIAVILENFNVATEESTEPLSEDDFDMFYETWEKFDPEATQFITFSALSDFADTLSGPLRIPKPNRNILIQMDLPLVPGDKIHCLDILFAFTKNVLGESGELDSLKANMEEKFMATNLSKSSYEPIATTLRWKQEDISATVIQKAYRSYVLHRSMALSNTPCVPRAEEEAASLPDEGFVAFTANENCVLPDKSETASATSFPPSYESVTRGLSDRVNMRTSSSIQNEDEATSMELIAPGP
human sodium channels Nav 1.7, sequence (Q15858 whole entry): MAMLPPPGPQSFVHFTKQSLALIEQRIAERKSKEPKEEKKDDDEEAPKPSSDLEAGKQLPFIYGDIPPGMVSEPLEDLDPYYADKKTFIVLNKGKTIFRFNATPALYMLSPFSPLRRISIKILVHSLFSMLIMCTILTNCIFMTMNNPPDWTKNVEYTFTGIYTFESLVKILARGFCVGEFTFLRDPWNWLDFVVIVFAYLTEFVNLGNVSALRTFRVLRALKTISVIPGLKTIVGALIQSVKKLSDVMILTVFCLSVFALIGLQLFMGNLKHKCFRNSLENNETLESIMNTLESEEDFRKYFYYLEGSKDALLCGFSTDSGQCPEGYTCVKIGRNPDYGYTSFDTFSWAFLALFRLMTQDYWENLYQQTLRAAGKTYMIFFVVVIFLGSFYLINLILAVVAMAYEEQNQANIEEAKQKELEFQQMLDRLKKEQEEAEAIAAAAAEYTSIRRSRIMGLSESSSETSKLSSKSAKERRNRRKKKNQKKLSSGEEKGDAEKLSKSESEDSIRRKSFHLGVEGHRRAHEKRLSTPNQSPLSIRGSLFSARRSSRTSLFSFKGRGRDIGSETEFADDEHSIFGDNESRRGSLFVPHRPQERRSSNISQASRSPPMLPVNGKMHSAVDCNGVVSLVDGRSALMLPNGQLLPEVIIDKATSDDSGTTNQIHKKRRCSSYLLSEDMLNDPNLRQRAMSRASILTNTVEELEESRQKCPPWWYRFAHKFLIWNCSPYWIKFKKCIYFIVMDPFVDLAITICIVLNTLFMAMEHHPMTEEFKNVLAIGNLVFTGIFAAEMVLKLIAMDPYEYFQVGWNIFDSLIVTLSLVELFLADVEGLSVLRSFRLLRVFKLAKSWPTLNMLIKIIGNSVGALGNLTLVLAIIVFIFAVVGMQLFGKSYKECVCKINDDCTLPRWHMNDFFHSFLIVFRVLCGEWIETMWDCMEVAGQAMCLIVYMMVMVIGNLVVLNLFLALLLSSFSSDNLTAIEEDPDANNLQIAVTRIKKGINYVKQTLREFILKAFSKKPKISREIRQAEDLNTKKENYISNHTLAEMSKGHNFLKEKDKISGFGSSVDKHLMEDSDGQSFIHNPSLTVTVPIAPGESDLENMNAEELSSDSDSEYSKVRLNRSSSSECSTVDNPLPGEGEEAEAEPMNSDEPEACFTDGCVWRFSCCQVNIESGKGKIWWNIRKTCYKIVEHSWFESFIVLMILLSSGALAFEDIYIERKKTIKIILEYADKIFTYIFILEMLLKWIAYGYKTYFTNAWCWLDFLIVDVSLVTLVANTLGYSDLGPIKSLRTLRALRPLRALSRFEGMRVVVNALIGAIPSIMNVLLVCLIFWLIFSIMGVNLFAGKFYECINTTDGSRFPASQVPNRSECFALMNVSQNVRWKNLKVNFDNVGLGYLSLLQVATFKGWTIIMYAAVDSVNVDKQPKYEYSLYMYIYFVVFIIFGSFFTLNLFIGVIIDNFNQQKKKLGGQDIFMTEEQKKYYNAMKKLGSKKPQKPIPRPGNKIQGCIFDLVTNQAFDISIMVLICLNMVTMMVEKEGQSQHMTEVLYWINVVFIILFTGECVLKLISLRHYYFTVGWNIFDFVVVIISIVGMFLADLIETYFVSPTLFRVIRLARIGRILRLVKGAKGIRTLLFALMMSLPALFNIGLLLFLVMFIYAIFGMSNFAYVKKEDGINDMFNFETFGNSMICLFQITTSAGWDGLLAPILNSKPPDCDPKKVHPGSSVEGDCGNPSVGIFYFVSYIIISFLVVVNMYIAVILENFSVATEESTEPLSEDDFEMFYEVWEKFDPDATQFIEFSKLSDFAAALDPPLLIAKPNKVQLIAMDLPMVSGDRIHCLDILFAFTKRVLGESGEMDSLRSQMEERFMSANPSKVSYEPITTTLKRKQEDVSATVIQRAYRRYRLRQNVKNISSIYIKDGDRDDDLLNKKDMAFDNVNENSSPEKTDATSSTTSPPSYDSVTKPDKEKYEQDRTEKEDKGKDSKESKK

`COc1cc(/C=N/NC(=O)c2ccc(-c3ccc(Cl)cc3)o2)cc(OC)c1` [Compound 2, (E)-5-(4-chlorophenyl)-N′-(3,5-dimethoxybenzylidene) furan-2-carbohydrazide]: the IC50 in experiment [1] and in experiment [2] was > 30 µM throughout.
With `CCOc1ccc(-c2ccc(C(=O)N/N=C/c3cccs3)o2)cc1` [Compound 3, (E)-5-(4-ethoxyphenyl)-N′-(thiophen-2-ylmethylene) furan-2-carbohydrazide], the IC50 in experiment [1] and in experiment [2] was > 30 µM throughout.
Turning to `CCOc1ccc(-c2ccc(C(=O)N/N=C/c3cccnc3N3CCOCC3)o2)cc1` [Compound 4, (E)-5-(4-ethoxyphenyl)-N′-((2-morpholinopyridin-3-yl)methylene) furan-2-carbohydrazide], the inhibition at 10 µM in experiment [1] and in experiment [2] was < 10% in each case.
Consider `CCOc1ccc(-c2ccc(C(=O)N/N=C/c3cc(CN(C)C)cs3)o2)cc1` [Compound 5, (E)-N′-((4-((dimethylamino)methyl)thiophen-2-yl)methylene)-5-(4-ethoxyphenyl) furan-2-carbohydrazide], for which the inhibition at 10 µM in experiment [1] and in experiment [2] was < 10% in each case.
With `CCOc1ccc(-c2ccc(C(=O)N/N=C/c3cccnc3)o2)cc1` [Compound 6, (E)-5-(4-ethoxyphenyl)-N′-(pyridin-3-ylmethylene) furan-2-carbohydrazide], the inhibition at 10 µM in experiment [1] and in experiment [2] was < 10% throughout.
As for `CC(C)Oc1ccc(-c2ccc(C(=O)N/N=C/c3cccs3)o2)cc1` [Compound 7, (E)-5-(4-isopropoxyphenyl)-N′-(thiophen-2-ylmethylene) furan-2-carbohydrazide], the half-inhibitory concentration (IC50) in experiment [1] is > 16.7 µM; in experiment [2] it was > 6.27 µM.
As to `CC(C)Oc1ccc(-c2ccc(C(=O)N/N=C/c3cc(CN(C)C)cs3)o2)cc1` [Compound 8, (E)-N′-((4-((dimethylamino)methyl)thiophen-2-yl)methylene)-5-(4-isopropoxyphenyl) furan-2-carbohydrazide], the inhibition at 10 µM in experiment [1] and in experiment [2] was < 10% in each case.
For `O=C(N/N=C/c1cccs1)c1ccc(-c2ccc(OCCN3CCOCC3)cc2)o1` [Compound 9, (E)-5-(4-(2-morpholinoethoxy)phenyl)-N′-(thiophen-2-ylmethylene) furan-2-carbohydrazide], the inhibition at 10 µM in experiment [1] and in experiment [2] was < 10% in each case.
As for `O=C(N/N=C/c1cccs1)c1cccc(-c2ccc(Cl)cc2)n1` [Compound 11, (E)-6-(4-chlorophenyl)-N′-(thiophen-2-ylmethylene) picolinohydrazide], the IC50 in experiment [1] was 12 µM; in experiment [2], 8.58 µM.
As to `CCOc1ccc(-c2cccc(C(=O)N/N=C/c3cccs3)n2)cc1` [Compound 12, (E)-6-(4-ethoxyphenyl)-N′-(thiophen-2-ylmethylene) picolinohydrazide], the IC50 in experiment [1] is 1.89 µM; in experiment [2] it was 3.21 µM.
Turning to `CC(C)Oc1ccc(-c2cccc(C(=O)N/N=C/c3cccs3)n2)cc1` [Compound 13, (E)-6-(4-isopropoxyphenyl)-N′-(thiophen-2-ylmethylene) picolinohydrazide], the inhibition at 10 µM in experiment [1] and in experiment [2] was < 10% each time.
In the case of `COc1cc(/C=N/NC(=O)c2cncc(-c3ccc(Cl)cc3)c2)cc(OC)c1` [Compound 16, (E)-5-(4-chlorophenyl)-N′-(3,5-dimethoxybenzylidene) nicotinohydrazide], the IC50 in experiment [1] stood at 4.12 µM; in experiment [2], 4.25 µM.
For `COc1cc(/C=N/NC(=O)c2cncc(-c3ccc(OC(F)(F)F)cc3)c2)cc(OC)c1` [Compound 17, (E)-N′-(3,5-dimethoxybenzylidene)-5-(4-(trifluoromethoxy)phenyl) nicotinohydrazide] the same measures were 7.09 µM and 6.83 µM.
Consider `CCOc1ccc(-c2cncc(C(=O)N/N=C/c3cc(OC)cc(OC)c3)c2)cc1` [Compound 18, (E)-N′-(3,5-dimethoxybenzylidene)-5-(4-ethoxyphenyl) nicotinohydrazide], for which the IC50 in experiment [1] was found to be 7.09 µM; in experiment [2], 6.83 µM.
With `COc1cc(/C=N/NC(=O)c2cncc(-c3ccc(OC(C)C)cc3)c2)cc(OC)c1` [Compound 19, (E)-N′-(3,5-dimethoxybenzylidene)-5-(4-isopropoxyphenyl) nicotinohydrazide], the IC50 in experiment [1] turned out to be 5.72 µM; in experiment [2], 5.9 µM.
Regarding `COc1cc(/C=N/NC(=O)c2ccnc(-c3ccc(Cl)cc3)c2)cc(OC)c1` [Compound 20, (E)-2-(4-chlorophenyl)-N′-(3,5-dimethoxybenzylidene) isonicotinohydrazide], the inhibition at 10 µM in experiment [1] and in experiment [2] was < 10% in each case.
Take `COc1cc(/C=N/NC(=O)c2ccnc(-c3ccc(OC(F)(F)F)cc3)c2)cc(OC)c1` [Compound 21, (E)-N′-(3,5-dimethoxybenzylidene)-2-(4-(trifluoromethoxy)phenyl) isonicotinohydrazide]: the inhibition at 10 µM in experiment [1] and in experiment [2] was < 10% each time.
`CCOc1ccc(-c2cc(C(=O)N/N=C/c3cc(OC)cc(OC)c3)ccn2)cc1` [Compound 22, (E)-N′-(3,5-dimethoxybenzylidene)-2-(4-ethoxyphenyl) isonicotinohydrazide]: the IC50 in experiment [1] and in experiment [2] was > 10 µM in each case.
Take `COc1cc(/C=N/NC(=O)c2ccnc(-c3ccc(OC(C)C)cc3)c2)cc(OC)c1` [Compound 23, (E)-N′-(3,5-dimethoxybenzylidene)-2-(4-isopropoxyphenyl) isonicotinohydrazide]: the concentration for half-maximal inhibition (IC50) in experiment [1] and in experiment [2] was > 10 µM throughout.
As to `COc1cc(/C=N/NC(=O)c2cccc(-c3ccc(OC(C)C)cc3)n2)cc(OC)c1` [Compound 24, (E)-N′-(3,5-dimethoxybenzylidene)-6-(4-isopropoxyphenyl) picolinohydrazide], the IC50 came to 5.72 µM in experiment [1] and 5.9 µM in experiment [2].
For the compound `COc1ccc(-c2cncc(C(=O)N/N=C/c3cc(OC)cc(OC)c3)c2)cc1` [Compound 25, (E)-N′-(3,5-dimethoxybenzylidene)-5-(4-methoxyphenyl) nicotinohydrazide], the IC50 in experiment [1] and in experiment [2] was > 10 µM in each case.
As for `CCCOc1ccc(-c2cncc(C(=O)N/N=C/c3cc(OC)cc(OC)c3)c2)cc1` [Compound 26, (E)-N′-(3,5-dimethoxybenzylidene)-5-(4-propoxyphenyl) nicotinohydrazide], the IC50 in experiment [1] is 3.5 µM; in experiment [2] it was > 10 µM.
On to `CCCCOc1ccc(-c2cncc(C(=O)N/N=C/c3cc(OC)cc(OC)c3)c2)cc1` [Compound 27, (E)-5-(4-butoxyphenyl)-N′-(3,5-dimethoxybenzylidene) nicotinohydrazide], for which the IC50 in experiment [1] and in experiment [2] was > 10 µM in each case.
Take `COc1cc(/C=N/NC(=O)c2cncc(-c3ccc(OC4CCCC4)cc3)c2)cc(OC)c1` [Compound 28, (E)-5-(4-(cyclopentyloxy)phenyl)-N′-(3,5-dimethoxybenzylidene) nicotinohydrazide]: the half-inhibitory concentration (IC50) in experiment [1] and in experiment [2] was > 10 µM throughout.
With `COc1ccc(-c2cc(C(=O)N/N=C/c3cc(OC)cc(OC)c3)ccn2)cc1` [Compound 29, (E)-N′-(3,5-dimethoxybenzylidene)-2-(4-methoxyphenyl) isonicotinohydrazide], the IC50 in experiment [1] and in experiment [2] was > 10 µM in each case.
